Among the data in patent US11292788B2, “IL-17 and IFN-gamma inhibition for the treatment of autoimmune diseases and chronic inflammation” (Immunic AG, priority 2017, dated 2022) are IC50, half-life and solubility values, retold here.

One data set relates to INF-γ. The experiment in a line: Cytokine assay: INF-γ production by human PBMC stimulated with PHA. It is filed as cell-based. Particulars: Homo sapiens, PBMC, IC50 class, read-out: IFN-gamma Inhib. In a few lines: (§1)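 Healthy-donor PBMC, isolated on Histopaque-1077, were seeded at 1×10^5 cells/well in RPMI1640 with 10% dialyzed heat-inactivated FCS, activated with 2 μg/ml PHA and incubated with compound for 48 hours. Supernatant cytokine was measured by Luminex BioPlex or ELISA. IC50 came from semilogarithmic titration; screening used 10, 1, 0.1 and 0.01 μM.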

A further data set concerns IL-17A. The experiment in a line: Cytokine assay: IL-17A production by human PBMC stimulated with PHA. Conditions: Homo sapiens, PBMC, IC50 class, read-out: IL-17A Inhib. In kind it is cell-based. In a few lines:
as §1

The subject of a further data set is IL-17F. The experiment in a line: Cytokine assay: IL-17F production by human PBMC stimulated with PHA. In kind it is cell-based. Particulars: Homo sapiens, PBMC, IC50 class, read-out: IL-17F Inhib. Put shortly:
as §1

Data set [1] in a line: Microsomal stability: incubation with human liver microsomes, residual parent compound by HPLC-MS/MS. It is filed as in vitro ADME. Particulars: pH 7.4; human liver microsomes, 1 μM compound, 0.5 mg/ml HLM, 37° C., up to 60 min; read-out: t1/2 hLM. In a few lines:
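Compound at 1 μM final with 0.5 mg/ml pooled human liver microsomes and NADPH regenerating system, 0.1 M potassium phosphate pH 7.4, 0.4% DMSO, 37° C, sampled up to 60 min. Residual parent measured by HPLC-MS/MS; half-life and clearance from slope of remaining % of T0.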

Data set [2] is described as follows: Aqueous solubility in 50 mM phosphate buffer (HPLC/DAD). In kind it is physicochemical. Particulars: 50 mM phosphate buffer, 23 °C, pH 7.4, aqueous buffer, kinetic from dmso stock, aqueous solubility class; read-out: aq. solub. In a few lines: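 Compound at 200 μM (1% DMSO final) shaken 24 h at 23° C in aqueous phosphate buffers at pH 4.0, 6.0, 7.4 and 9.0. Undissolved material removed by centrifugation (30 min, 18000 g). Supernatant concentration quantified by HPLC-UV against a 0.1–200 μg/ml standard curve in MeCN.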

Values after ≈ are worked out from the molar mass of the structure shown. Some results are limits rather than exact numbers.

As for `C[C@]1(O)C[C@@H](n2ncc(-c3onc(-c4ccccc4Cl)c3-c3ccncn3)c2C(F)(F)F)C1` [Example 106, 3-{4-[3-(2-chlorophenyl)-4-(pyrimidin-4-yl)-1,2-oxazol-5-yl]-5-(trifluoromethyl)-1H-pyrazol-1-yl}-1-methylcyclobutan-1-ol], the IC50 in the data set with INF-γ, in the data set with IL-17A and with IL-17F was < 0.05 µM each time. The half-life at 1 μM in data set [1] is > 1.67 h. The solubility at 24 h in data set [2] is > 10 µM.
In the case of `Cc1c(-c2onc(-c3c(F)cccc3Cl)c2-c2cnccn2)cnn1[C@H]1C[C@@](C)(O)C1` [Example 110, 3-{4-[3-(2-chloro-6-fluorophenyl)-4-(pyrazin-2-yl)-1,2-oxazol-5-yl]-5-methyl-1H-pyrazol-1-yl}-1-methylcyclobutan-1-ol], the IC50 in the data set with INF-γ, with IL-17A and in the data set with IL-17F was 0.05 to 0.5 µM each time. Further, in data set [1], the half-life at 1 μM was > 1.67 h. Also, in data set [2], the solubility at 24 h is > 10 µM.
As for `Cc1c(-c2onc(-c3c(F)cccc3Cl)c2-c2ncccn2)cnn1[C@H]1C[C@@](C)(O)C1` [Example 111, 3-{4-[3-(2-chloro-6-fluorophenyl)-4-(pyrimidin-2-yl)-1,2-oxazol-5-yl]-5-methyl-1H-pyrazol-1-yl}-1-methylcyclobutan-1-ol], the IC50 with INF-γ, in the data set on IL-17A and in the data set with IL-17F was < 0.05 µM each time. The half-life at 1 μM in data set [1] was > 1.67 h. Moreover, the solubility at 24 h in data set [2] is > 10 µM.
For the molecule `COc1cccc(-c2noc(-c3cnn([C@H]4C[C@@](C)(O)C4)c3C)c2-c2ncccn2)c1Cl` [Example 112, 3-{4-[3-(2-chloro-3-methoxyphenyl)-4-(pyrimidin-2-yl)-1,2-oxazol-5-yl]-5-methyl-1H-pyrazol-1-yl}-1-methylcyclobutan-1-ol], the IC50 in the data set with INF-γ, in the data set with IL-17A and in the data set on IL-17F was < 0.05 µM each time. Further, in data set [1], the half-life at 1 μM is > 1.67 h. Further, the solubility at 24 h in data set [2] is > 10 µM.
`CC(C)(O)CCn1ncc(-c2onc(-c3c(F)cccc3Cl)c2-c2ncccn2)c1C(F)(F)F` [Example 123, 4-{4-[3-(2-chloro-6-fluorophenyl)-4-(pyrimidin-2-yl)-1,2-oxazol-5-yl]-5-(trifluoromethyl)-1H-pyrazol-1-yl}-2-methylbutan-2-ol]: the IC50 with INF-γ, in the data set with IL-17A and with IL-17F was < 0.05 µM in each case. Also, the half-life at 1 μM in data set [1] is > 1.67 h. Also, the solubility at 24 h in data set [2] is > 10 µM.
Consider `Cc1c(-c2onc(-c3ccccc3Cl)c2-c2ncccn2)cnn1CCC(C)(C)O` [Example 126, 4-[4-[3-(2-chlorophenyl)-4-(pyrimidin-2-yl)-1,2-oxazol-5-yl]-5-methyl-1H-pyrazol-1-yl]-2-methylbutan-2-ol], for which the IC50 with INF-γ, in the data set on IL-17A and with IL-17F was 0.05 to 0.5 µM each time. Also, in data set [1], the half-life at 1 μM was > 1.67 h. For the same molecule, the solubility at 24 h in data set [2] is > 10 µM.
`CC(C)(O)CCn1ncc(-c2onc(-c3cccc(OCc4ccccc4)c3Cl)c2-c2ncccn2)c1C(F)(F)F` [Example 128, 4-(4-{3-[3-(benzyloxy)-2-chlorophenyl]-4-(pyrimidin-2-yl)-1,2-oxazol-5-yl}-5-(trifluoromethyl)-1H-pyrazol-1-yl)-2-methylbutan-2-ol]: the IC50 is ≥ 5 µM with INF-γ, < 0.05 µM in the data set on IL-17A and < 0.05 µM in the data set with IL-17F. The half-life at 1 μM in data set [1] is 0.0333 to 0.167 h. The solubility at 24 h in data set [2] is < 1 µM.
As for `COc1cccc(-c2noc(-c3cnn([C@H]4C[C@@](C)(O)C4)c3C(F)(F)F)c2COC2CC2)c1Cl` [Example 130, 3-(4-(3-(2-chloro-3-methoxyphenyl)-4-(cyclopropoxymethyl)isoxazol-5-yl)-5-(trifluoromethyl)-1H-pyrazol-1-yl)-1-methylcyclobutan-1-ol], the IC50 in the data set on INF-γ, in the data set with IL-17A and in the data set with IL-17F was < 0.05 µM each time. In data set [1], the half-life at 1 μM was in the range of 0.667 to 1.67 h. For the same molecule, the solubility at 24 h in data set [2] was in the range of 3 to 9.99 µM (≈ 1.49 to 4.97 µg/mL).
`CCOC(=O)c1c(-c2cccc(OC)c2Cl)noc1-c1cnn([C@H]2C[C@@](C)(O)C2)c1C(F)(F)F` [Example 131, ethyl 3-(2-chloro-3-methoxyphenyl)-5-{1-[3-hydroxy-3-methylcyclobutyl]-5-(trifluoromethyl)-1H-pyrazol-4-yl}-1,2-oxazole-4-carboxylate]: the IC50 in the data set on INF-γ, with IL-17A and in the data set on IL-17F was < 0.05 µM throughout. Moreover, the half-life at 1 μM in data set [1] is > 1.67 h. In data set [2], the solubility at 24 h was > 10 µM.
As to `CCOC(=O)c1c(-c2cccc(OC)c2Cl)noc1-c1cnn(CCC(C)(C)O)c1C(F)(F)F` [Example 132, ethyl 3-(2-chloro-3-methoxyphenyl)-5-[1-(3-hydroxy-3-methylbutyl)-5-(trifluoromethyl)-1H-pyrazol-4-yl]-1,2-oxazole-4-carboxylate], the IC50 in the data set with INF-γ, with IL-17A and with IL-17F was < 0.05 µM throughout. In data set [1], the half-life at 1 μM lay in the range of 0.667 to 1.67 h. In addition, the solubility at 24 h in data set [2] is 3 to 9.99 µM (≈ 1.51 to 5.01 µg/mL).
In the case of `CCN(CC)CCCOc1cccc(-c2noc(-c3cnn(CCC(C)(C)O)c3C)c2-c2ncccn2)c1Cl` [Example 147, 4-[4-(3-{2-chloro-3-[3-(diethylamino)propoxy]phenyl}-4-(pyrimidin-2-yl)-1,2-oxazol-5-yl)-5-methyl-1H-pyrazol-1-yl]-2-methylbutan-2-ol], the values for the IC50 in the data set with INF-γ, in the data set on IL-17A and in the data set with IL-17F were 0.05 to 0.5 µM, 0.5 to 5 µM and 0.5 to 5 µM, respectively. Further, the half-life at 1 μM in data set [1] was > 1.67 h. Also, the solubility at 24 h in data set [2] is > 10 µM.
For `C[C@@H](O)Cn1ncc(-c2onc(-c3cccc(C(=O)N4CCCC4)c3Cl)c2-c2ccncn2)c1C(F)(F)F` [Example 160, (R)-(2-chloro-3-(5-(1-(2-hydroxypropyl)-5-(trifluoromethyl)-1H-pyrazol-4-yl)-4-(pyrimidin-4-yl)isoxazol-3-yl)phenyl)(pyrrolidin-1-yl)methanone], the IC50 in the data set on INF-γ, with IL-17A and in the data set on IL-17F was < 0.05 µM in each case. In addition, the half-life at 1 μM in data set [1] was 0.167 to 0.666 h. For the same molecule, the solubility at 24 h in data set [2] is > 10 µM.
